Source: ChEMBL document CHEMBL1641535, “Design and synthesis of potent macrocyclic renin inhibitors” (Bioorg Med Chem Lett, 2011)
pIC50, pKi: −log10 of the molar value.

What was measured:
Cathepsin D = Cathepsin D (Homo sapiens, UniProt P07339); assay: Inhibition of cathepsin D
Renin [1] = molecular target: T1, Renin (Homo sapiens, UniProt P00797); assay: Inhibition of renin
T1 sequence (P00797 whole entry): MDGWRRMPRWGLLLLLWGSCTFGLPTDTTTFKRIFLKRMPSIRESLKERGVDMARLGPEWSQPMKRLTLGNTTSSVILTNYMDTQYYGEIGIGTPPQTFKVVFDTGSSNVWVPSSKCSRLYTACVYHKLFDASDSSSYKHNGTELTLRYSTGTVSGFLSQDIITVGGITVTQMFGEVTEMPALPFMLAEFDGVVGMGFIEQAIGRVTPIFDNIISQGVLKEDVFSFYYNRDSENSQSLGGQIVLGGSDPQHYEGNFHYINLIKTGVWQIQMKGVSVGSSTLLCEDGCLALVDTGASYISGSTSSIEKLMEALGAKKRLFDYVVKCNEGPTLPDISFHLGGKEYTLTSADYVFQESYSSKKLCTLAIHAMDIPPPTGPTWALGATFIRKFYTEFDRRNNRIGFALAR

Beta-secretase 1 = Beta-secretase 1 (Homo sapiens, UniProt P56817); assay: Inhibition of BACE1
[2] = Intrinsic clearance in human liver microsomes; format: ADME, Microsome
Renin [3] = molecular target: T1, Renin; assay: Inhibition of human plasma renin; format: cell-free
MDCK [4] = assay: Efflux ratio of permeability from […] side of wild type MDCK2 cells; format: ADME, cell-based, Canis lupus familiaris; conditions: dog
MDCK [5] = assay: Efflux ratio of permeability from […] side of MDCK2 cells over expressing human Pgp; format: ADME, cell-based, Canis lupus familiaris; conditions: dog
human Pgp = assay: Apparent permeability across MDCK cells transfected with human Pgp; format: ADME, cell-based, Canis lupus familiaris; conditions: dog, MDCK-MDR1
[6] = Apparent permeability across wild type MDCK cells; format: ADME, cell-based, Canis lupus familiaris; conditions: dog

Sequence of Beta-secretase 1 (P56817 whole entry): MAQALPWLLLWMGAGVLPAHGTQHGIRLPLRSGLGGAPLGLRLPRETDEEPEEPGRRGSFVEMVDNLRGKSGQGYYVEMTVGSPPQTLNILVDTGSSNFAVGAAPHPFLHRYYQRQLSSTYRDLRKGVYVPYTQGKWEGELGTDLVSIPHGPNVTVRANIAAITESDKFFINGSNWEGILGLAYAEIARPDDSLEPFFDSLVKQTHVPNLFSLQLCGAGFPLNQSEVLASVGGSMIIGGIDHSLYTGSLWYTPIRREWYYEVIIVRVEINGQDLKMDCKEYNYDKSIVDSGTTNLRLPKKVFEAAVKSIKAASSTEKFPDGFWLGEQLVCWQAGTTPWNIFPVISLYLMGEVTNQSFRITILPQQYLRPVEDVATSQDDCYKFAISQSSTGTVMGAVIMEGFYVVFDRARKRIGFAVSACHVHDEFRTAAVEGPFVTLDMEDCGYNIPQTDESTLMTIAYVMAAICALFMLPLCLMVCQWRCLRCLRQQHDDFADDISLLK
Sequence of Cathepsin D (P07339 65-162 limits assumed): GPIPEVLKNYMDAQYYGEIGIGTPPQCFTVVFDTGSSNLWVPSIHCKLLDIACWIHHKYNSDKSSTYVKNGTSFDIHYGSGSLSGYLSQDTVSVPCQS
Sequence of Cathepsin D (P07339 169-412 limits assumed): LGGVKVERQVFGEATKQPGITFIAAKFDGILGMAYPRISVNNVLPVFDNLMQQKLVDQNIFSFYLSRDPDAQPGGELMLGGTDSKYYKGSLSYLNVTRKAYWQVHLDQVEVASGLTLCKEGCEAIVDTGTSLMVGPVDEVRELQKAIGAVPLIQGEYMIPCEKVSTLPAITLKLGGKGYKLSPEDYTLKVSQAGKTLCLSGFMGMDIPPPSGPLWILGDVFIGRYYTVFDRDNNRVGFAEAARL

pKi (Cathepsin D)	pKi (Renin [1])	pIC50 (Beta-secretase 1)	SMILES	further results
6.34	6.35	5.72	COCCCC1NC(=O)c2cc(cc(N(C)S(C)(=O)=O)c2)C(=O)N[C@H]([C@@H](O)C[C@H](C(=O)NCC(C)C)C(C)C)COCc2cccc1c2 (some centres not stated)	–
6.12	6.89	5.51	COc1ccc(C2NC(=O)c3cc(cc(N(C)S(C)(=O)=O)c3)C(=O)N[C@H]([C@@H](O)C[C@H](C(=O)NCC(C)C)C(C)C)COCc3cccc2c3)cc1 (some centres not stated)	–
< 5.30	6.03	< 5.00	COCCOC1CCCc2cc(cc(N(C)S(C)(=O)=O)c2)C(=O)N[C@H]([C@@H](O)C[C@H](C(=O)NCC(C)C)C(C)C)COCc2cccc1c2 (some centres not stated)	–
5.77	6.47	< 5.00	CNC(=O)[C@@H](C[C@H](O)[C@@H]1COCc2cccc(c2)C(c2ccccc2)NC(=O)c2cc(cc(N(C)S(C)(=O)=O)c2)C(=O)N1)C(C)C (some centres not stated)	–
< 5.30	< 5.30	< 5.00	COCCOC1CCc2cc(cc(N(C)S(C)(=O)=O)c2)C(=O)N[C@H]([C@@H](O)C[C@H](C(=O)NCC(C)C)C(C)C)COCc2cccc1c2 (some centres not stated)	–
8.48	7.68	7.52	CC(C)[C@H](C[C@H](O)[C@H](COCc1ccccc1)NC(=O)c1cc(C(=O)N[C@H](C)c2ccccc2)cc(N(C)S(C)(=O)=O)c1)C(=O)N[C@H](C(=O)NCc1ccccc1)C(C)C	microsomal CLint [2]: 260 µL/min/mg; pIC50 (Renin [3]; read-out: IC50): 7.42
–	–	–	COCCCOc1cc(C[C@@H](C[C@H](N)[C@@H](O)C[C@H](C(=O)NCC(C)(C)C(N)=O)C(C)C)C(C)C)ccc1OC	Ratio (MDCK [4]): 0.7; Ratio (MDCK [5]): 1.5
6.70	–	5.43	CC(C)CNC(=O)[C@@H](C[C@H](O)[C@@H]1COCc2cccc(c2)C(c2ccccc2)NC(=O)c2cc(cc(N(C)S(C)(=O)=O)c2)C(=O)N1)C(C)C (some centres not stated)	pIC50 (Renin [3]): 7.25; Papp (human Pgp): 0.1 ×10⁻⁶ cm/s; Papp [6]: 0.1 ×10⁻⁶ cm/s
